Square brackets hold non-standard residues; d marks the D form. Peptide text beside a SMILES is read from it. dNMeF = CN[C@H](Cc1ccccc1)C(=O)O; dAbu = CC[C@@H](N)C(=O)O
test system: growth hormone release, rat pituitary cells; test: in vitro test for the inhibition of growth hormone release in cultured rat pituitary cells; assay type: cell-based; details: multiples or fractions of the effect of somatostatin (arbitrary value 1); rat pituitary cells after 4 days in culture, 4 hours incubation, graded doses; growth hormone by radioimmunoassay
Description: The instant cyclic hexapeptide analogs ofsomatostatin are tested and compared with the effects of somatostatin in an in vitro test for the inhibition of growth hormone. The test is described as follows:
"Rat pituitaries" were isolated according to the procedures of Vale and Grant `In vitro Pituitary Hormone Secretion Assay for Hypophysiopic Substances` in Methods in Enzymology. Vol.XXXVII, eds. O'Malley, B. W. and Hardman, J. G. (Academic Press, Inc., New York) pp.5-93 (1975).
"After 4 days in culture, the cells were washed and incubated for 4 hours in Dulbecco-modified Eagle's medium in the presence or absence of graded doses of each analog of somatostatin. The medium was then collected for subsequent growth hormone determination by a double antibody radioimmunoassay for rat growth hormone."
The test results for some of the compounds of this invention are recorded below with the results for somatostatin listed first and given the arbitrary value of 1. The results for the instant compounds are given as multiples or fractions of the effect of somatostatin. The first of the instant compounds listed is the compound prepared in Examples 1-5. The compound is written slightly different, however, to conform to the order of the amino acids found in somatostatin.

Q: `CC[C@H]1NC(=O)[C@@H](Cc2ccc(O)cc2)NC(=O)[C@@H](Cc2c[nH]c3ccccc23)NC(=O)[C@H](CCCCN)NC(=O)[C@@H](C(C)C)NC(=O)[C@@H](Cc2ccccc2)N(C)C1=O` [Cyclo-(D-Abu--N--Me--D-Phe--D-Val--L-Lys--D-Trp--D-Tyr)] (cyclo(K[dW][dY][dAbu][dNMeF][dV])) was tested. Which “Growth Hormone Release Inhibition In Vitro” value did it give?
A: 2.4

Q: With `C[C@H](O)[C@H]1NC(=O)[C@@H](Cc2ccccc2)N(C)C(=O)[C@@H](C)NC(=O)[C@@H](Cc2ccccc2)NC(=O)[C@H](Cc2c[nH]c3ccccc23)NC(=O)[C@@H](CCCCN)NC1=O` [Cyclo-(D-Ala--N--Me--D-Phe--D-Thr--D-Lys--L-Trp--D-Phe)] (cyclo(W[dF][dA][dNMeF][dT][dK])) as the compound, how does the “Growth Hormone Release Inhibition In Vitro” value read?
A: 0.27

Q: For `C[C@H](O)[C@H]1NC(=O)[C@@H](Cc2ccccc2)N(C)C(=O)[C@@H](C)NC(=O)[C@@H](Cc2ccccc2)NC(=O)[C@@H](Cc2c[nH]c3ccccc23)NC(=O)[C@H](CCCCN)NC1=O` [Cyclo-(D-Ala--N--Me--D-Phe--D-Thr--L-Lys--D-Trp--D-Phe)] (cyclo(K[dW][dF][dA][dNMeF][dT])), which “Growth Hormone Release Inhibition In Vitro” value is on record?
A: 0.88

Q: `CC(C)[C@H]1NC(=O)[C@@H](Cc2ccccc2)N(C)C(=O)[C@@H](C)NC(=O)[C@@H](Cc2ccccc2)NC(=O)[C@@H](Cc2c[nH]c3ccccc23)NC(=O)[C@H](CCCCN)NC1=O` [Cyclo-(D-Ala--N--Me--D-Phe--D-Val--L-Lys--D-Trp--D-Phe)] (cyclo(K[dW][dF][dA][dNMeF][dV])) was tested. Which “Growth Hormone Release Inhibition In Vitro” value did it give?
A: 0.3

From patent US4360516A, “Modified D-retro cyclic hexapeptide somatostatin analogs” (Merck & Co., Inc., priority 1981, dated 1982)
